Source: US10736883B2, “Triazole furan compounds as agonists of the APJ receptor” (AMGEN INC., priority 2016, dated 2020)

The molecules below were run against APJ receptor (Homo sapiens (Human), UniProt P35414) (assay: [35S]GTPγS binding assay on membranes from CHO cells stably expressing human APJ receptor). Conditions: membranes of CHO cells stably expressing human APJ receptor, means of several independent experiments, read-out: Activity hAPJ SPA EC50 IP.
APJ receptor, sequence (P35414 whole entry): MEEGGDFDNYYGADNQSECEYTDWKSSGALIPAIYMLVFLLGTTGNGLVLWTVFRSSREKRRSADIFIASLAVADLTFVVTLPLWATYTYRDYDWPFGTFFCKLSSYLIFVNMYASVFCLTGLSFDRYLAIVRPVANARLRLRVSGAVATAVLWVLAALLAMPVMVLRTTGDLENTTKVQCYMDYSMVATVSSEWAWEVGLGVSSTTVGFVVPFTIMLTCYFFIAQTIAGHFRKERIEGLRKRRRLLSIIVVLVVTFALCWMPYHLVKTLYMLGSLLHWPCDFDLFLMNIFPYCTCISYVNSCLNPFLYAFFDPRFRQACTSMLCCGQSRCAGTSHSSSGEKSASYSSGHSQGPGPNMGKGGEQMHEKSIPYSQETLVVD
Format: biochemical
Outline: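 EC50 values were obtained by non-linear regression of [35S]GTPγS (0.2 nM) binding after 90 min at RT, with nonspecific binding defined by 100 μM GTPγS. Reactions used human APJ–expressing CHO cell membranes on WGA PS beads in HEPES pH 7.5 buffer with 5 mM MgCl2, 200 mM NaCl, 3 μM GDP and 0.1% BSA.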
For COCCO[C@H](c1ncc(C)cn1)[C@H](C)S(=O)(=O)Nc1nnc(-c2ccc(C)o2)n1-c1c(OC)cccc1OC [Example 120.0, (1R,2S)—N-(4-(2,6-Dimethoxyphenyl)-5-(5-methylfuran-2-yl)-4H-1,2,4-triazol-3-yl)-1-(2-methoxyethoxy)-1-(5-methylpyrimidin-2-yl)propane-2-sulfonamide], the EC50 was 0.15 nM. For COc1cccc(OC)c1-n1c(NS(=O)(=O)CCc2ncc(Cl)cc2CN2CCOCC2)nnc1-c1ccco1 [Example 219.0, 2-(5-Chloro-3-(4-morpholinylmethyl)-2-pyridinyl)-N-(4-(2,6-dimethoxyphenyl)-5-(2-furanyl)-4H-1,2,4-triazol-3-yl)ethanesulfonamide], the EC50 was 0.26 nM. COc1cccc(OC)c1-n1c(NS(=O)(=O)[C@@H](C)[C@@H](O)c2cn3ccccc3n2)nnc1-c1ccc(C)o1 (single isomer, unassigned) [Example 308.0, (1S,2S)—N-(4-(2,6-Dimethoxyphenyl)-5-(5-methyl-2-furanyl)-4H-1,2,4-triazol-3-yl)-1-hydroxy-1-imidazo[1,2-a]pyridin-2-yl-2-propanesulfonamide or (1R,2R)—N-(4-(2,6-dimethoxyphenyl)-5-(5-methyl-2-furanyl)-4H-1,2,4-triazol-3-yl)-1-hydroxy-1-imidazo[1,2-a]pyridin-2-yl-2-propanesulfonamide] gave an EC50 of 33 nM. COc1cccc(OC)c1-n1c(NS(=O)(=O)[C@@H](C)Cc2ncc(F)cn2)nnc1-c1ccc(C)o1 (racemic) [Example 94.0, (2S)—N-(4-(2,6-Dimethoxyphenyl)-5-(5-methyl-2-furanyl)-4H-1,2,4-triazol-3-yl)-1-(5-fluoro-2-pyrimidinyl)-2-propanesulfonamide and (2R)—N-(4-(2,6-dimethoxyphenyl)-5-(5-methyl-2-furanyl)-4H-1,2,4-triazol-3-yl)-1-(5-fluoro-2-pyrimidinyl)-2-propanesulfonamide] was tested, and the EC50 was 0.17 nM. COc1cccc(OC)c1-n1c(NS(=O)(=O)[C@H](C)[C@@H](OC)c2cn3ccccc3n2)nnc1-c1ccc(C)o1 (racemic) [Example 264.0, (1R,2S)—N-(4-(2,6-Dimethoxyphenyl)-5-(5-methyl-2-furanyl)-4H-1,2,4-triazol-3-yl)-1-imidazo[1,2-a]pyridin-2-yl-1-methoxy-2-propanesulfonamide and (1S,2R)—N-(4-(2,6-dimethoxyphenyl)-5-(5-methyl-2-furanyl)-4H-1,2,4-triazol-3-yl)-1-imidazo[1,2-a]pyridin-2-yl-1-methoxy-2-propanesulfonamide] gave an EC50 of 0.167 nM. COc1cccc(OC)c1-n1c(NS(=O)(=O)CCc2ncc(F)cn2)nnc1-c1ccc(C)o1 [Example 125.0, N-(4-(2,6-Dimethoxyphenyl)-5-(5-methylfuran-2-yl)-4H-1,2,4-triazol-3-yl)-2-(5-fluoropyrimidin-2-yl)ethanesulfonamide] was tested, and the EC50 was 0.34 nM. Work on COc1cccc(OC)c1-n1c(NS(=O)(=O)c2cccc(CO)c2)nnc1-c1ccc(C)o1 [Example 409.0, N-(4-(2,6-dimethoxyphenyl)-5-(5-methyl-2-furanyl)-4H-1,2,4-triazol-3-yl)-3-(hydroxymethyl)benzenesulfonamide] yielded an EC50 of 43 nM. In the case of Cc1ccc(-c2nnc(NS(=O)(=O)[C@@H](C)Cc3ncc(F)cn3)n2C2CC2)o1 (racemic) [Example 319.0, (2R)—N-(4-Cyclopropyl-5-(5-methyl-2-furanyl)-4H-1,2,4-triazol-3-yl)-1-(5-fluoro-2-pyrimidinyl)-2-propanesulfonamide and (2S)—N-(4-cyclopropyl-5-(5-methyl-2-furanyl)-4H-1,2,4-triazol-3-yl)-1-(5-fluoro-2-pyrimidinyl)-2-propanesulfonamide], the EC50 is reported as 610 nM. Work on Cc1ccc(-c2nnc(NS(=O)(=O)[C@@H](C)[C@H](C)c3ncc(F)cn3)n2C2CCOCC2)o1 [Example 182.0, (2S,3R)-3-(5-Fluoro-2-pyrimidinyl)-N-(5-(5-methyl-2-furanyl)-4-(tetrahydro-2H-pyran-4-yl)-4H-1,2,4-triazol-3-yl)-2-butanesulfonamide] yielded an EC50 of 26 nM. With COc1cccc(OC)c1-n1c(NS(=O)(=O)[C@@H](C)[C@@H](C)c2ncc(F)cn2)nnc1-c1ccc(C)o1 [Example 110.0] the EC50 was 0.97 nM. For [2H]C([2H])([2H])c1ccc(-c2nnc(NS(=O)(=O)[C@@H](C)[C@H](C)c3ncc(F)cn3)n2-c2c(OC)ncnc2OC)o1 [Example 395.0, (2S,3R)—N-(4-(4,6-Dimethoxy-5-pyrimidinyl)-5-(5-trideuteromethyl-2-furanyl)-4H-1,2,4-triazol-3-yl)-3-(5-fluoro-2-pyrimidinyl)-2-butanesulfonamide], the EC50 was 0.26 nM. Work on COc1cccc(OC)c1-n1c(NS(=O)(=O)[C@H]2C[C@@H](O)CN(c3ncc(F)cn3)C2)nnc1-c1ccc(C)o1 (single isomer, unassigned) [Example 323.0, (3S,5R)—N-(4-(2,6-Dimethoxyphenyl)-5-(5-methyl-2-furanyl)-4H-1,2,4-triazol-3-yl)-1-(5-fluoro-2-pyrimidinyl)-5-hydroxy-3-piperidinesulfonamide or (3R,5S)—N-(4-(2,6-dimethoxyphenyl)-5-(5-methyl-2-furanyl)-4H-1,2,4-triazol-3-yl)-1-(5-fluoro-2-pyrimidinyl)-5-hydroxy-3-piperidinesulfonamide] yielded an EC50 of 0.2 nM. COc1cccc(OC)c1-n1c(NS(=O)(=O)[C@H]2C[C@H](OC)CN(c3ncc(F)cn3)C2)nnc1-c1ccco1 (single isomer, unassigned) [Example 178.0] was tested, and the EC50 was 3 nM. COc1cccc(OC)c1-n1c(NS(=O)(=O)[C@H](C)[C@@H](O)c2cc3n(n2)CCCO3)nnc1-c1ccc(C)o1 (racemic) [Example 290.0] gave an EC50 of 5 nM. For COc1cccc(OC)c1-n1c(NS(=O)(=O)[C@H]2COc3cc(Cl)cnc3C2)nnc1-c1ccco1 (racemic) [Example 181.0, (3R)-7-Chloro-N-(4-(2,6-dimethoxyphenyl)-5-(2-furanyl)-4H-1,2,4-triazol-3-yl)-3,4-dihydro-2H-pyrano[3,2-b]pyridine-3-sulfonamide and (3S)-7-chloro-N-(4-(2,6-dimethoxyphenyl)-5-(2-furanyl)-4H-1,2,4-triazol-3-yl)-3,4-dihydro-2H-pyrano[3,2-b]pyridine-3-sulfonamide], the EC50 was 5.9 nM. With COC[C@@H]1CCCC(=O)N1C[C@H](C)S(=O)(=O)Nc1nnc(-c2ccc(C)o2)n1-c1c(OC)cccc1OC (racemic) [Example 151.0] the EC50 was 0.24 nM. Work on COc1cccc(OC)c1-n1c(NS(=O)(=O)CCc2ncc(Cl)cc2C2=CCNCC2)nnc1-c1ccco1 [Example 220.0, 2-(5-Chloro-1′,2′,3′,6′-tetrahydro-3,4′-bipyridin-2-yl)-N-(4-(2,6-dimethoxyphenyl)-5-(2-furanyl)-4H-1,2,4-triazol-3-yl)ethanesulfonamide] yielded an EC50 of 0.27 nM. For COc1cccc(OC)c1-n1c(NS(=O)(=O)[C@@H](C)[C@H](O)c2ccc(F)c(C#N)c2)nnc1-c1ccc(C)o1 (single isomer, unassigned) [Example 81.0], the EC50 was 1.1 nM. Work on CO[C@H](c1ncc(Cl)cn1)[C@H](C)S(=O)(=O)Nc1nnc(-c2ccc(C)o2)n1[C@@H]1CCCOC1 [Example 391.0, (1R,2S)-1-(5-chloropyrimidin-2-yl)-1-methoxy-N-(5-(5-methylfuran-2-yl)-4-((R)-tetrahydro-2H-pyran-3-yl)-4H-1,2,4-triazol-3-yl)propane-2-sulfonamide] yielded an EC50 of 8.4 nM. COc1cccc(OC)c1-n1c(NS(=O)(=O)[C@H]2C[C@@H](O)CN(c3ncc(F)cc3C#N)C2)nnc1-c1ccc(C)o1 (racemic) [Example 331.0, (3S,5R)-1-(3-Cyano-5-fluoropyridin-2-yl)-N-(4-(2,6-dimethoxyphenyl)-5-(5-methylfuran-2-yl)-4H-1,2,4-triazol-3-yl)-5-hydroxypiperidine-3-sulfonamide and (3R,5S)-1-(3-cyano-5-fluoropyridin-2-yl)-N-(4-(2,6-dimethoxyphenyl)-5-(5-methylfuran-2-yl)-4H-1,2,4-triazol-3-yl)-5-hydroxypiperidine-3-sulfonamide] showed an EC50 of 0.45 nM. With COc1cccc(OC)c1-n1c(NS(=O)(=O)[C@H](C)Cc2ccc(C)nn2)nnc1-c1ccc(C)o1 (single isomer, unassigned) [Example 43.0, (2R)—N-(4-(2,6-dimethoxyphenyl)-5-(5-methyl-2-furanyl)-4H-1,2,4-triazol-3-yl)-1-(6-methyl-3-pyridazinyl)-2-propanesulfonamide or (2S)—N-(4-(2,6-dimethoxyphenyl)-5-(5-methyl-2-furanyl)-4H-1,2,4-triazol-3-yl)-1-(6-methyl-3-pyridazinyl)-2-propanesulfonamide] the EC50 was 25 nM. COc1cccc(OC)c1-n1c(NS(=O)(=O)[C@H](C)[C@@H](O)c2cscn2)nnc1-c1ccc(C)o1 (single isomer, unassigned) [Example 307.0, (1S,2R)—N-(4-(2,6-Dimethoxyphenyl)-5-(5-methyl-2-furanyl)-4H-1,2,4-triazol-3-yl)-1-hydroxy-1-(1,3-thiazol-4-yl)-2-propanesulfonamide or (1R,2S)—N-(4-(2,6-dimethoxyphenyl)-5-(5-methyl-2-furanyl)-4H-1,2,4-triazol-3-yl)-1-hydroxy-1-(1,3-thiazol-4-yl)-2-propanesulfonamide] gave an EC50 of 28 nM. COc1cccc(OC)c1-n1c(NS(=O)(=O)C2C[C@@H]2c2ccc(Cl)cc2)nnc1-c1ccco1 (single isomer, unassigned) [Example 191.0, (1R,2S)-2-(4-Chlorophenyl)-N-(4-(2,6-dimethoxyphenyl)-5-(2-furanyl)-4H-1,2,4-triazol-3-yl)cyclopropanesulfonamide or (1S,2R)-2-(4-chlorophenyl)-N-(4-(2,6-dimethoxyphenyl)-5-(2-furanyl)-4H-1,2,4-triazol-3-yl)cyclopropanesulfonamide] showed an EC50 of 15 nM.
